Patent publication US11006631B2, “Substituted pyrimidinyloxy pyridine derivatives as herbicides” (FMC Corporation, priority 2015, dated 2021)

How the values were obtained:
Type in all cases: in vivo
[1] = test system: pigweed (Amaranthus retroflexus); assay: Test A postemergence, pigweed; settings: 0 to 100 scale
Procedure, shortened: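 Plants are sown in a loam soil and sand blend, then treated with formulated compound either preemergence by directed soil spray or postemergence at one- to two-leaf stage. After approximately 10 days, injury is judged visually against untreated controls using a 0 to 100 control scale.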

[2] = test system: ryegrass, Italian (Italian ryegrass, Lolium multiflorum); assay: Test A postemergence, ryegrass, Italian; settings: 0 to 100 scale
Text: Seeds of plant species selected from bamyardgrass (Echinochloa crus-galli), kochia (Kochia scoparia), ragweed (common ragweed, Ambrosia elatior), ryegrass, Italian (Italian ryegrass, Lolium multiflorum), foxtail, giant (giant foxtail, Setaria faberii), pigweed (Amaranthus retroflexus), crabgrass, large (large crabgrass, Digitaria sanguinalis), momingglory (Ipomoea spp.), velvetleaf (Abutilon theophrasti), wheat (Triticum aestivum), and corn (Zea mays) were planted into a blend of loam soil and sand and treated preemergence with a directed soil spray using test chemicals formulated in a non-phytotoxic solvent mixture which included a surfactant. At the same time, plants selected from these crop and weed species and also blackgrass (Alopecurus myosuroides), and galium (catchweed bedstraw, Galium aparine) were planted in pots containing the same blend of loam soil and sand and treated with postemergence applications of test chemicals formulated in the same manner. Plants ranged in height from 2 to 10 cm and were in the one- to two-leaf stage for the postemergence treatment. Treated plants and untreated controls were maintained in a greenhouse for approximately 10 days, after which time all treated plants were compared to untreated controls and visually evaluated for injury. Plant response ratings, summarized in Table A, are based on a 0 to 100 scale where 0 is no effect and 100 is complete control. A dash (-) response means no test result.

[3] = test system: chickweed (common chickweed, Stellaria media); assay: Test C postemergence, chickweed
Text: (§1) Seeds of plant species selected from blackgrass (Alopecurus myosuroides), ryegrass, Italian (Italian ryegrass, Lolium multiflorum), wheat (winter wheat, Triticum aestivum), galium (catchweed bedstraw, Galium aparine), corn (Zea mays), crabgrass, large (large crabgrass, Digitaria sanguinalis), foxtail, giant (giant foxtail, Setaria faberii), lambsquarters (Chenopodium album), morningglory (Ipomoea coccinea), nutsedge, yellow (yellow nutsedge, Cyperus esculentus), pigweed (Amaranthus retroflexus), johnsongrass (Sorghum halepense), ragweed (common ragweed, Ambrosia elatior), soybean (Glycine max), barnyardgrass (Echinochloa crus-galli), oilseed rape (Brassica napus), waterhemp (common waterhemp, Amaranthus rudis), chickweed (common chickweed, Stellaria media), oat, wild (wild oat, Avena fatua), kochia (Kochia scoparia), and velvetleaf (Abutilon theophrasti) were planted in pots containing Redi-Earth® planting medium (Scotts Company, 14111 Scottslawn Road, Marysville, Ohio 43041) comprising spaghnum peat moss, vermiculite, wetting agent and starter nutrients and treated with postemergence applications of a test chemical formulated in a non-phytotoxic solvent mixture which included a surfactant. Plants ranged in height from 2 to 18 cm (1- to 4-leaf stage) for postemergence treatments. Treated plants and controls were maintained in a greenhouse for 13 to 15 days, after which time all species were compared to controls and visually evaluated. Plant response ratings, summarized in Table C, are based on a scale of 0 to 100 where 0 is no effect and 100 is complete control. A dash (-) response means no test result.

[4] = test system: wheat (winter wheat, Triticum aestivum); assay: Test C postemergence, wheat
Text: as §1, with “Plants ranged in height from 2 to 18 cm (1- to 4-leaf stage) for postemergence treatments.” left out, “Plant response ratings, summarized in Table C, are based on a scale of 0 to 100 where 0 is no effect and 100 is complete control. A dash (-) response means no test result.” left out

FC(F)c1cc(-c2ncccc2Oc2ncc(Cl)cn2)on1 [Compound 5, 5-chloro-2-[[2-[3-(difluoromethyl)-5-isoxazolyl]-3-pyridinyl]oxy]pyrimidine]
Plant response rating, Pigweed ([1]; 31 g ai/ha): 80 | Plant response rating, Pigweed ([1]; 125 g ai/ha): 90 | Plant response rating, Ryegrass, Italian ([2]; 31 g ai/ha): 0 | Plant response rating, Ryegrass, Italian ([2]; 125 g ai/ha): 0 | Plant response rating, Chickweed ([3]; 16 g ai/ha): 35 | Plant response rating, Chickweed ([3]; 31 g ai/ha): 40 | Plant response rating, Chickweed ([3]; 62 g ai/ha): 55 | Plant response rating, Chickweed ([3]; 125 g ai/ha): 60 | Plant response rating, Wheat ([4]; 16 g ai/ha): 5 | Plant response rating, Wheat ([4]; 31 g ai/ha): 5
